In patent publication US20130165522A1, “GEL FORMULATIONS FOR THE TOPICAL USE OF 1-AMINO-ALKYLCYCLOHEXANE DERIVATIVES” (MERZ PHARMA GmbH & CO. KGaA, priority 2010, published 2013):

Legend:
Propionibacterium acnes = test: Antibacterial activity; type: cell-based
Staphylococcus aureus = test: Antibacterial activity; type: cell-based

With `CC1(C)CC(C)(C)CC(C)(N)C1` [neramexane, 1-amino-1,3,3,5,5-pentamethylcyclohexane] the antibacterial activity (Propionibacterium acnes) was “exhibits antibacterial activity” and the antibacterial activity (Staphylococcus aureus) was “exhibits antibacterial activity”.
